Measurements reported in ChEMBL document CHEMBL1122235, “4'-Methylangelicins: new potential agents for the photochemotherapy of psoriasis” (J Med Chem, 1983).
In brackets after ≈: the same amount, converted by molar mass.

How the values were obtained:
Mus musculus [1] = experiment: In vivo inhibition of epidermal DNA synthesis in mouse after topical application; format: functional
[2] = Number of nucleotides occluded by a bound furocoumarin molecule
[3] = Rate constant of the photoreaction between compound and DNA.; format: ADME
[4] = Frequency of binding sites i.e., number of ligands bound per nucleotide
[5] = In vivo inhibition of epidermal DNA synthesis in mouse after topical application relative to that of 8-MOP; format: functional
[6] = In vivo inhibition of epidermal DNA synthesis in mouse after oral administration relativ to that of 8-MOP; format: functional
Mus musculus [7] = experiment: In vivo inhibition of epidermal DNA synthesis in mouse after oral administration; format: functional
Nucleic Acid = experiment: Association constant to an isolated site calf thymus DNA; format: nucleic-acid assay; conditions: Bos taurus
[8] = Partition coefficient between octanol and water; format: physicochemical
[9] = Solubility in water was determined; format: physicochemical

SMILES | Number [2] | Rate constant [3] [min⁻¹] | 1/n [4] | Binding constant (Nucleic Acid) | Partition coefficient [8] | Solubility ([9]; buffer) [M l-1] | Solubility ([9]; water, read-out: Solubility) [µg/mL] | Inhibition (Mus musculus [1]) [%] | Relative activity [5] | Relative activity [6] | Inhibition (Mus musculus [7]) [%]
COc1c2occc2cc2ccc(=O)oc12 [METHOXSALEN] | 7.81 | 0.031 | 0.128 | 736 | – | – | – | 61 | 1 | 1 | 39.1
O=c1ccc2ccc3occc3c2o1 [ANGELICIN] | 15.9 | 0.011 | 0.063 | 560 | 120 | 0.000105 | – | 17.5 | 0.28 | 0.71 | 28
Cc1coc2ccc3ccc(=O)oc3c12 | 15.4 | 0.037 | 0.065 | 975 | 240 | 0.00007 | 14 (≈ 69.9 µM) | 58.43 | 0.95 | 0.94 | 36.75
Cc1cc(=O)oc2c1ccc1occ(C)c12 | 12.5 | 0.073 | 0.08 | 6600 | 1190 | 0.000012 | 2.6 (≈ 12.1 µM) | 44.27 | 0.72 | 0.66 | 25.82

The next lines start with results.

Number [2] | Rate constant [3] [min⁻¹] | 1/n [4] | Binding constant (Nucleic Acid) | Partition coefficient [8] | Solubility ([9]; buffer) [M l-1] | Solubility ([9]; water, read-out: Solubility) [µg/mL] | SMILES | Inhibition (Mus musculus [1]) [%] | Relative activity [5] | Relative activity [6] | Inhibition (Mus musculus [7]) [%]
12.5 | 0.059 | 0.08 | 5400 | 1041 | 0.000022 | 4.7 (≈ 21.9 µM) | Cc1cc2occ(C)c2c2oc(=O)ccc12 | 58.41 | 0.95 | 1.36 | 53.33
– | 0.034 | – | – | – | – | – | Cc1cc2occc2c2oc(=O)ccc12 | – | – | – | –
– | 0.021 | – | – | – | – | – | Cc1cc2c(ccc3ccc(=O)oc32)o1 | – | – | – | –
– | 0.016 | – | – | – | – | – | Cc1cc(=O)oc2c1ccc1occc12 | – | – | – | –
